Measurements from ChEMBL document CHEMBL5634133, “Indirubin derivatives as bifunctional molecules inducing DNA damage and targeting PARP for the treatment of cancer” (Eur J Med Chem, 2023).
pIC50: −log10 of the molar value. Activity calls are given as the source filed them. No cut-off for these calls is given here.

Tests used:
[1] = tested on: MCF7; test: Antiproliferative activity against human MCF7 cells assessed as inhibition of cell viability incubated for 72 hrs by CCK8 assay; type: functional, cell-based; details: MCF7, 72 h
[2] = tested on: HCT-116; test: Antiproliferative activity against human HCT-116 cells assessed as inhibition of cell viability incubated for 72 hrs by CCK8 assay; type: functional, cell-based; details: HCT-116, 72 h
[3] = tested on: NCM460; test: Antiproliferative activity against human NCM460 cells assessed as inhibition of cell viability incubated for 72 hrs by CCK8 assay; type: functional, cell-based; details: NCM460, 72 h
[4] = tested on: A549; test: Antiproliferative activity against human A549 cells assessed as inhibition of cell viability incubated for 72 hrs by CCK8 assay; type: functional, cell-based; details: A549, 72 h
[5] = tested on: MV4-11; test: Antiproliferative activity against human MV4-11 cells assessed as inhibition of cell viability incubated for 72 hrs by CCK8 assay; type: functional, cell-based; details: MV4-11, 72 h
[6] = tested on: MCF7; test: cells; details: Homo sapiens, MCF7, 72 h
Description: Antiproliferative activity against human MCF7 cells assessed as inhibition of cell viability incubated for 72 hrs in presence of IDM by CCK8 assay

[7] = tested on: NCM460; test: cells; details: Homo sapiens, NCM460, 72 h
Description: Antiproliferative activity against human NCM460 cells assessed as inhibition of cell viability incubated for 72 hrs in presence of IDM by CCK8 assay

[8] = tested on: MV4-11; test: Antiproliferative activity against human MV4-11 cells assessed as inhibition of cell viability incubated for 72 hrs in presence of IDM by CCK8 assay; type: functional, cell-based; details: MV4-11, 72 h
[9] = tested on: A549; test: cells; details: Homo sapiens, A549, 72 h
Description: Antiproliferative activity against human A549 cells assessed as inhibition of cell viability incubated for 72 hrs in presence of IDM by CCK8 assay

[10] = tested on: HCT-116; test: Antitumor activity against human HCT-116 cells xenografted in BALB/c nude mouse assessed as tumor growth inhibition at 20 mg/kg, ip administered for 14 days relative to control; type: functional; details: time 14 day
[11] = tested on: HCT-116; test: cells; details: Homo sapiens, HCT-116, 72 h
Description: Antiproliferative activity against human HCT-116 cells assessed as inhibition of cell viability incubated for 72 hrs in presence of IDM by CCK8 assay

[12] = tested on: HCT-116; test: Induction of DNA damage in human HCT-116 cells assessed as increase in gammaH2AX protein level at 1 uM incubated for 48 hrs in presence of IDM by Western blotting analysis; type: cell-based
[13] = target: T1, Poly [ADP-ribose] polymerase 1 (Homo sapiens, UniProt P09874); details: dose 10.0 nM, time 10.0 min
[14] = target: T1, Poly [ADP-ribose] polymerase 1; test: Inhibition of PARP1 (unknown origin) incubated for 10 mins by chemiluminescence assay

T1 sequence (P09874 whole entry): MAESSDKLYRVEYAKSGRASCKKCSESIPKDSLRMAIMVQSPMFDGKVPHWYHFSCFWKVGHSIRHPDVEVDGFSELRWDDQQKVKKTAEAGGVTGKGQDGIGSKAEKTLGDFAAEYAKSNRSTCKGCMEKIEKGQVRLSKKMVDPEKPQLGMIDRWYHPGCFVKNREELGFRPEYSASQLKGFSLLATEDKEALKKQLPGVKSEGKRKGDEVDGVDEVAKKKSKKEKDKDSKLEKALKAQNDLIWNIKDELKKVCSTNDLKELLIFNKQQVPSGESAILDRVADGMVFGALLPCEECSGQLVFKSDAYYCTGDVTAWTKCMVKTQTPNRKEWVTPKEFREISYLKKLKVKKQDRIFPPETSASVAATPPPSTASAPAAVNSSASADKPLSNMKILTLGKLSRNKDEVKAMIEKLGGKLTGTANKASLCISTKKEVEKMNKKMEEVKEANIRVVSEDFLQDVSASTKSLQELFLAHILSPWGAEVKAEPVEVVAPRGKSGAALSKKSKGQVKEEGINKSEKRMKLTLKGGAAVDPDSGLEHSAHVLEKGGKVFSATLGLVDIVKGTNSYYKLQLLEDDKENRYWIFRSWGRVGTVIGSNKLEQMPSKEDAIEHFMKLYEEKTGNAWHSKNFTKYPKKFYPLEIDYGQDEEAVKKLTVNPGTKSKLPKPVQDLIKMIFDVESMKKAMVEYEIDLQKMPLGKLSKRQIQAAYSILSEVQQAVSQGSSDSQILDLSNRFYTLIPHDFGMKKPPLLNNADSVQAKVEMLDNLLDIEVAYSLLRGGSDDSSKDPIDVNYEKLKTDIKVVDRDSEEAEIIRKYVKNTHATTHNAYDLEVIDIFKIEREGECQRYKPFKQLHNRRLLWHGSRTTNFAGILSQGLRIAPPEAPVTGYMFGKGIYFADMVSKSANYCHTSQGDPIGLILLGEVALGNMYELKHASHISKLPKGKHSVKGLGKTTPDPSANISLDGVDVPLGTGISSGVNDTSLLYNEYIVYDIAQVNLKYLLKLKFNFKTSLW

Structure (SMILES)	pIC50 [1]	pIC50 [2]	pIC50 [3]	pIC50 [4]	pIC50 [5]	pIC50 [6]	pIC50 [7]	pIC50 [8]	pIC50 [9]	TGI [10]	pIC50 [11]	Activity [12]	inhibition [13]	pIC50 [14]
O=C1Nc2ccccc2/C1=C1/Nc2ccccc2/C1=N\OCCCCC(=O)N1CCN(C(=O)c2ccc(Cc3n[nH]c(=O)c4ccccc34)cc2F)CC1	4.35	4.68	< 4.22	4.42	4.41									
NC(=O)c1cccc2cn(-c3ccc([C@@H]4CCCN(C(=O)c5ccc(CO/N=C6/C(=C7/C(=O)Nc8ccccc87)Nc7ccccc76)cc5)C4)cc3)nc12	4.33	4.50	< 4.22	4.31	4.40									
O=C1Nc2ccccc2/C1=C1/Nc2ccccc2/C1=N\OCCCCCCCC(=O)N1CCN(C(=O)c2ccc(Cc3n[nH]c(=O)c4ccccc34)cc2F)CC1	< 4.30	4.36	< 4.22	< 4.30	< 4.30									
O=C(c1cc(Cc2n[nH]c(=O)c3ccccc23)ccc1F)N1CCN(C(=O)C2CC2)CC1 [OLAPARIB]	4.03	4.95	4.17	4.53	4.87	5.63	4.70	5.63	5.22	32.5%	5.86	Active	50.6%	
O=C1Nc2ccccc2/C1=C1/Nc2ccccc2/C1=N\OCCCCCC(=O)N1CCN(C(=O)c2ccc(Cc3n[nH]c(=O)c4ccccc34)cc2F)CC1	< 4.30	4.49	< 4.22	< 4.30	< 4.30									
O=C1Nc2ccccc2/C1=C1/Nc2ccccc2/C1=N\OCCCCCCCNC(=O)c1cc(Cc2n[nH]c(=O)c3ccccc23)ccc1F	< 4.30	< 4.30	< 4.22	< 4.30	< 4.30									
O=C1Nc2ccccc2/C1=C1/Nc2ccccc2/C1=N\OCc1ccc(C(=O)N2CCN(C(=O)c3cc(Cc4n[nH]c(=O)c5ccccc45)ccc3F)CC2)cc1	4.36	4.56	< 4.22	4.37	4.48									
NC(=O)c1cccc2cn(-c3ccc([C@@H]4CCCN(C(=O)CCCCO/N=C5/C(=C6/C(=O)Nc7ccccc76)Nc6ccccc65)C4)cc3)nc12	4.38	4.56	< 4.22	4.32	4.44									
O=C1Nc2ccccc2/C1=C1/Nc2ccc(F)cc2/C1=N\OCCCC(=O)N1CCN(C(=O)c2cc(Cc3n[nH]c(=O)c4ccccc34)ccc2F)CC1	4.49	4.75	< 4.22	4.60	4.66								55.8%	8.35
O=C1Nc2ccc(Br)cc2/C1=C1/Nc2ccccc2/C1=N\OCCCC(=O)N1CCN(C(=O)c2cc(Cc3n[nH]c(=O)c4ccccc34)ccc2F)CC1	4.53	5.07	< 4.22	4.56	4.94								53.8%	8.33
O=C1Nc2ccccc2/C1=C1/Nc2ccccc2/C1=N\OCCCCCNC(=O)c1cc(Cc2n[nH]c(=O)c3ccccc23)ccc1F	< 4.30	4.59	< 4.22	< 4.30	< 4.30									
NC(=O)c1cccc2cn(-c3ccc([C@@H]4CCCNC4)cc3)nc12 [NIRAPARIB]	4.93	5.74	4.27	4.90	5.42	5.85	4.68	5.77	5.38		6.08			
O=C1Nc2ccccc2/C1=C1/Nc2ccccc2/C1=N\OCCCCCCNC(=O)c1cc(Cc2n[nH]c(=O)c3ccccc23)ccc1F	< 4.30	4.33	< 4.22	< 4.30	< 4.30									
O=C1Nc2ccc(F)cc2/C1=C1/Nc2ccccc2/C1=N\OCCCC(=O)N1CCN(C(=O)c2cc(Cc3n[nH]c(=O)c4ccccc34)ccc2F)CC1	4.41	4.72	< 4.22	4.46	4.62								54.9%	8.65
NC(=O)c1cccc2cn(-c3ccc([C@@H]4CCCN(C(=O)CCCCCCO/N=C5/C(=C6/C(=O)Nc7ccccc76)Nc6ccccc65)C4)cc3)nc12	< 4.30	< 4.30	< 4.22	< 4.30	< 4.30									
O=C1Nc2ccccc2/C1=C1/Nc2ccccc2/C1=N\OCCCNC(=O)c1cc(Cc2n[nH]c(=O)c3ccccc23)ccc1F	5.16	4.86	5.03	5.09	4.83									
O=C1Nc2ccccc2/C1=C1/Nc2ccccc2/C1=N\OCCCCCCC(=O)N1CCN(C(=O)c2ccc(Cc3n[nH]c(=O)c4ccccc34)cc2F)CC1	< 4.30	4.41	< 4.22	< 4.30	< 4.30									
O=C1Nc2ccc(Cl)cc2/C1=C1/Nc2ccccc2/C1=N\OCCCC(=O)N1CCN(C(=O)c2cc(Cc3n[nH]c(=O)c4ccccc34)ccc2F)CC1	< 4.30	4.55	< 4.22	< 4.30	< 4.30									
NC(=O)c1cccc2cn(-c3ccc([C@@H]4CCCN(C(=O)CCCCCCCO/N=C5/C(=C6/C(=O)Nc7ccccc76)Nc6ccccc65)C4)cc3)nc12	< 4.30	< 4.30	< 4.22	< 4.30	< 4.30									
NC(=O)c1cccc2cn(-c3ccc([C@@H]4CCCN(C(=O)CCCCCO/N=C5/C(=C6/C(=O)Nc7ccccc76)Nc6ccccc65)C4)cc3)nc12	< 4.30	4.53	< 4.22	< 4.30	4.33									
O=C1Nc2ccc(Br)cc2/C1=C1/Nc2ccc(Br)cc2/C1=N\OCCCC(=O)N1CCN(C(=O)c2cc(Cc3n[nH]c(=O)c4ccccc34)ccc2F)CC1	4.31	5.09	< 4.22	4.33	4.31								31.1%	
O=C1Nc2ccccc2/C1=C1/Nc2ccccc2/C1=N\OCC1CCN(C(=O)c2cc(Cc3n[nH]c(=O)c4ccccc34)ccc2F)CC1	< 4.30	4.35	< 4.22	< 4.30	4.32									
O=C1Nc2ccccc2/C1=C1/Nc2ccccc2/C1=N\OCCCCNC(=O)c1cc(Cc2n[nH]c(=O)c3ccccc23)ccc1F	5.74	5.51	5.09	5.36	4.93									
O=C1Nc2ccc(F)cc2/C1=C1/Nc2ccc(F)cc2/C1=N\OCCCC(=O)N1CCN(C(=O)c2cc(Cc3n[nH]c(=O)c4ccccc34)ccc2F)CC1	4.34	6.12	< 4.22	4.37	4.35								49.9%	
